{"source": "patent US20240125803A1", "about": "“NOVEL DIAGNOSTIC AND METHOD OF SCREENING THERAPEUTICS FOR FIBROTIC CONDITIONS” (BLR-Bio, LLC, priority 2022, published 2024)", "molecules": {"B1": {"name": "rhCCN3: recombinant human CCN3 (protein, UniProt P48745 32-357, looked up)", "CCN family member 3": "TQRCPPQCPGRCPATPPTCAPGVRAVLDGCSCCLVCARQRGESCSDLEPCDESSGLYCDRSADPSNQTGICTAVEGDNCVFDGVIYRSGEKFQPSCKFQCTCRDGQIGCVPRCQLDVLLPEPNCPAPRKVEVPGECCEKWICGPDEEDSLGGLTLAAYRPEATLGVEVSDSSVNCIEQTTEWTACSKSCGMGFSTRVTNRNRQCEMLKQTRLCMVRPCEQEPEQPTDKKGKKCLRTKKSLKAIHLQFKNCTSLHTYKPRFCGVCSDGRCCTPHNTKTIQAEFQCSPGQIVKKPVMVIGTCTCHTNCPKNNEAFLQELELKTTRGKM"}}, "key": {"[1]": {"tested_on": "fibrosis-related gene expression", "assay": "Bleomycin-induced skin fibrosis, 21 days: bulk RNAseq of skin", "format": "in vivo, C57BL/6J mice", "conditions": "d21, n=2", "experimental": "6-week-old C57BL/6J mice were subjected to bleomycin treatment (subcutaneous injection 0.1 U/100 μl/mouse daily) in the presence or absence of BLR200 (intraperitoneal injection 10 μg/kg every other day) for 21 days. For a reversal of fibrosis experiment, BLR200 treatment was started at d14 of bleomycin treatment and continued until d28. Fibrosis was assessed by histological, and unbiased bulk RNAseq, real-time polymerase chain reaction and spatial transcriptomic analyses.\nUnbiased cluster analysis of bulk RNAseq data was performed using the Database for Annotation, Visualization and Integrated Discovery (DAVID). Clusters relate to fibrosis with the enrichment score and #of genes greater than 1.0 and 10, respectively, were chosen. n=2."}, "CCN2": {"biological_target": "T1, CCN2 (Mus musculus, UniProt P29268)", "T1 construct": "FG-3019 treatment mitigated Ang II-induced fibrosis, as visualized by a reduction in skin thickness; host or cells: animals of the Ang II-induced dermal fibrosis model (endogenous protein)", "T1 sequence (P29268 26-348)": "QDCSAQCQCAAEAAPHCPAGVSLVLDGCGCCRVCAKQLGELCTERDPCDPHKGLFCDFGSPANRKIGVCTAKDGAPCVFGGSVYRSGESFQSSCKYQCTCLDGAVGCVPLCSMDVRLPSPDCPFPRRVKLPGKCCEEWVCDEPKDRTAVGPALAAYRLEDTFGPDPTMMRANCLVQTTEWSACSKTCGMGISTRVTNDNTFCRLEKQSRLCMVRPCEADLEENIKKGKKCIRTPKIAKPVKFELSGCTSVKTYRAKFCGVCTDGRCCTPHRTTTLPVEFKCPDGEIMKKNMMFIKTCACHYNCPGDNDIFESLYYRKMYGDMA", "conditions": "Makino et al., 2017; cited from earlier work"}, "[2]": {"tested_on": "fibrosis in diabetic nephropathy", "conditions": "Riser et al., 2014; cited from earlier work"}}}
{"molecule": "Bleomycin sulfate", "values": [{"measurement": "Fold Chance, ADAM10", "setting": "[1]", "value": 3.68, "unit": "Fold"}, {"measurement": "Fold Chance, ADAMTS4", "setting": "[1]", "value": 4.29, "unit": "Fold"}, {"measurement": "Fold Chance, ADAMTS9", "setting": "[1]", "value": 4.46, "unit": "Fold"}, {"measurement": "Fold Chance, ADAMTS20", "setting": "[1]", "value": 11.3, "unit": "Fold"}, {"measurement": "Fold Chance, CDH11", "setting": "[1]", "value": 11.3, "unit": "Fold"}, {"measurement": "Fold Chance, CITED2", "setting": "[1]", "value": 6.43, "unit": "Fold"}, {"measurement": "Fold Chance, ELK1", "setting": "[1]", "value": 3.69, "unit": "Fold"}, {"measurement": "Fold Chance, FN1", "setting": "[1]", "value": 5.12, "unit": "Fold"}, {"measurement": "Fold Chance, FZD6", "setting": "[1]", "value": 22.4, "unit": "Fold"}, {"measurement": "Fold Chance, ITGA6", "setting": "[1]", "value": 4.46, "unit": "Fold"}, {"measurement": "Fold Chance, ITGAE", "setting": "[1]", "value": 3.68, "unit": "Fold"}, {"measurement": "Fold Chance, PECAM1", "setting": "[1]", "value": 4.29, "unit": "Fold"}, {"measurement": "Fold Chance, SMAD3", "setting": "[1]", "value": 3.07, "unit": "Fold"}, {"measurement": "Fold Chance, TNC", "setting": "[1]", "value": 3.13, "unit": "Fold"}, {"measurement": "Fold Chance, WNT4", "setting": "[1]", "value": 3.07, "unit": "Fold"}, {"measurement": "Fold Chance, WNT7a", "setting": "[1]", "value": 5.81, "unit": "Fold"}, {"measurement": "Fold Chance, YAP1 (Yes-associated protein 1)", "setting": "[1]", "value": 8.61, "unit": "Fold"}]}
{"molecule": "FG-3019: monoclonal antibody targeting CCN2", "values": [{"measurement": "Ang II-induced fibrosis (skin thickness, collagen deposition, number of αSMA-expressing myofibroblasts)", "setting": "CCN2", "value": "mitigated"}]}
{"molecule": "B1", "values": [{"measurement": "fibrosis in a mouse model of diabetic nephropathy", "setting": "[2]", "value": "block and reverse fibrosis"}]}
